Data from patent publication US8937062B2, “Compositions and methods for treating, reducing, ameliorating, or preventing infections caused by antibacterial drug-resistant bacteria” (Bausch & Lomb Incorporated, priority 2007, dated 2015).
Values after ≈ are worked out from the molar mass of the structure shown.

Legend:
[1] = system: penicillin-resistant S. aureus; assay: MIC90, Japanese Society of Chemotherapy guidelines (1993), Table 3; assay type: cell-based
Protocol: (§1) In a second test, compounds having Formulae IV and V, their racemic mixture, and OFLX were tested in vitro against S. aureus strains that are resistant to methicillin or penicillin. The test was conducted according to the guidelines of the Japanese Society of Chemotherapy (1993).

[2] = system: methicillin-resistant S. aureus; assay: as above; assay type: cell-based
Protocol: as §1

[3] = system: Penicillin-resistant Streptococcus pneumoniae; assay: In vitro anti-bacterial activity, resistant clinical isolates, fifth test, Table 6; assay type: cell-based
Text: (§2) As disclosed above, most of these bacteria strains are also relevant to infections of the ear and upper respiratory tract.

[4] = system: Ofloxacin-resistant Staphylococcus aureus; assay: as above; assay type: cell-based
Text: as §2

[5] = system: Gentamicin-resistant Staphylococcus aureus; assay: as above; assay type: cell-based
Text: as §2

[6] = system: Gentamicin-resistant Pseudomonas aeruginosa; assay: as above; assay type: cell-based
Text: as §2

[7] = system: OFLX-resistant Enterobacteriaceae; assay: MIC90, agar plate dilution method (NCCLS), Table 2; assay type: cell-based; conditions: OFLX-resistant Enterobacteriaceae, 10 isolates
Protocol: (§3) The MIC90 values for this test were determined by the agar plate dilution method according to the National Committee for Clinical Laboratory Standards (“NCCLS”).

[8] = system: APC-resistant Haemophilus influenza.; assay: MIC90, agar plate dilution method (NCCLS), Table 2; assay type: cell-based; conditions: APC-resistant Haemophilus influenza., 10 isolates
Protocol: as §3

GM-resistant S. aureus = assay: MIC90, agar plate dilution method (NCCLS), Table 2; assay type: cell-based; conditions: 10 isolates
Protocol: as §3

OFLX-resistant S. aureus = assay: MIC90, agar plate dilution method (NCCLS), Table 2; assay type: cell-based; conditions: 10 isolates
Protocol: as §3

[9] = system: GM-resistant P. aeruginosa; assay: MIC90, agar plate dilution method (NCCLS), Table 2; assay type: cell-based; conditions: 10 isolates
Protocol: as §3

[10] = system: PCG-resistant S. pneumoniae; assay: MIC90, agar plate dilution method (NCCLS), Table 2; assay type: cell-based; conditions: 10 isolates
Protocol: as §3

[11] = system: E. cloacae, extended-spectrum β-lactamase positive; assay: MIC90, broth microdilution (CLSI M7-A7), Table 4; assay type: cell-based; conditions: 15 isolates
Protocol: (§4) The MIC90 values were determined according to the broth microdilution method outlined in the Clinical and Laboratory Standards Institute Approved Standard M7-A7 (2006).

[12] = system: S. pneumoniae, penicillin-intermediately resistant; assay: MIC90, broth microdilution (CLSI M7-A7), Table 4; assay type: cell-based; conditions: 26 isolates
Protocol: as §4

[13] = system: S. pneumoniae, levofloxacin-resistant; assay: MIC90, broth microdilution (CLSI M7-A7), Table 4; assay type: cell-based; conditions: 25 isolates
Protocol: as §4

[14] = system: H. influenzae, β-lactamase positive; assay: MIC90, broth microdilution (CLSI M7-A7), Table 4; assay type: cell-based; conditions: 53 isolates
Protocol: as §4

[15] = system: S. aureus, methicillin-resistant and ciprofloxacin-sensitive; assay: MIC90, broth microdilution (CLSI M7-A7), Table 4; assay type: cell-based; conditions: 25 isolates
Protocol: as §4

[16] = system: S. aureus, methicillin- and ciprofloxacin-resistant; assay: MIC90, broth microdilution (CLSI M7-A7), Table 4; assay type: cell-based; conditions: 24 isolates
Protocol: as §4

[17] = system: S. pneumoniae, penicillin-resistant; assay: MIC90, broth microdilution (CLSI M7-A7), Table 4; assay type: cell-based; conditions: 26 isolates
Protocol: as §4

[18] = system: H. influenzae, β-lactamase positive, ampicillin-resistant; assay: MIC90, broth microdilution (CLSI M7-A7), Table 4; assay type: cell-based; conditions: 25 isolates
Protocol: as §4

[19] = system: S. aureus, vancomycin-intermediately resistant; assay: MIC90, broth microdilution (CLSI M7-A7), Table 4; assay type: cell-based; conditions: 23 isolates
Protocol: as §4

[20] = system: S. epidermidis, methicillin-resistant; assay: MIC90, broth microdilution (CLSI M7-A7), Table 4; assay type: cell-based; conditions: 64 isolates
Protocol: as §4

[21] = system: S. aureus, vancomycin-resistant; assay: MIC90, broth microdilution (CLSI M7-A7), Table 4; assay type: cell-based; conditions: 3 isolates
Protocol: as §4

[22] = system: S. aureus Clinical Isolates; assay: In vitro activity against clinical isolates, sixth test, Table 7; assay type: cell-based; conditions: 49 isolates
[23] = system: Ofloxacin-resistant Enterobacteriaceae; assay: organism not typed; assay type: cell-based; conditions: Ofloxacin-resistant Enterobacteriaceae, clinical isolates, fifth test
Text: as §2

[24] = system: S. pneumoniae Clinical Isolates; assay: In vitro activity against clinical isolates, sixth test, Table 7; assay type: cell-based; conditions: 78 isolates
[25] = system: Methicillin-Resistant S. aureus Isolates; assay: In vitro anti-bacterial activity, fourth test, Table 5; assay type: cell-based, Staphylococcus aureus
Protocol: In a fourth test, the anti-bacterial activity of the compound having Formula IV was tested against some methicillin-resistant S. aureus bacteria strains and compared to the anti-bacterial activity of three commercially available antibiotics: nadifloxacin (“NDFX”), ofloxacin (“OFLX”), and sparfloxacin (“SPFX”).

N[C@@H]1CCCCN(c2c(F)cc3c(=O)c(C(=O)O)cn(C4CC4)c3c2Cl)C1 [Compound IV]
MIC90 ([1]; S. aureus (ATCC 11632)): 0.025 µg/mL (≈ 0.0635 µM)
MIC90 ([1]; S. aureus (ATCC 13301)): 0.012 µg/mL (≈ 0.0305 µM)
MIC90 ([2]; S. aureus (ATCC 33591)): 0.025 µg/mL (≈ 0.0635 µM)
MIC90 ([2]; S. aureus (ATCC 33592)): 0.012 µg/mL (≈ 0.0305 µM)
MIC90 ([2]; S. aureus (ATCC 33593)): 0.025 µg/mL (≈ 0.0635 µM)
MIC90 ([2]; S. aureus (No. 395)): 0.025 µg/mL (≈ 0.0635 µM)
MIC90 ([2]; S. aureus (No. 415)): 0.012 µg/mL (≈ 0.0305 µM)
MIC90 ([2]; S. aureus (No. 419)): 0.025 µg/mL (≈ 0.0635 µM)
MIC90 ([2]; S. aureus (No. 420)): 0.012 µg/mL (≈ 0.0305 µM)
MIC90 ([2]; S. aureus (No. 421)): 0.025 µg/mL (≈ 0.0635 µM)
MIC90 [3]: 0.13 µg/mL (≈ 0.33 µM)
MIC90 [4]: 8 µg/mL (≈ 20.3 µM)
MIC90 [5]: 4 µg/mL (≈ 10.2 µM)
MIC90 [6]: 32 µg/mL (≈ 81.3 µM)
MIC90 Geometric Mean [7]: 11.3 µg/mL (≈ 28.7 µM)
MIC90 Range [7]: 4 to 32 µg/mL
MIC90 Value [7]: 16 µg/mL (≈ 40.6 µM)
MIC90 Geometric Mean [8]: ≦0.06 μg/ml
MIC90 Range [8]: ≦0.06 μg/ml
MIC90 Value [8]: ≦0.06 μg/ml
MIC90 Geometric Mean (GM-resistant S. aureus): 0.65 µg/mL (≈ 1.65 µM)
MIC90 Range (GM-resistant S. aureus): ≦0.006-8 μg/ml
MIC90 Value (GM-resistant S. aureus): 4 µg/mL (≈ 10.2 µM)
MIC90 Geometric Mean (OFLX-resistant S. aureus): 2.14 µg/mL (≈ 5.43 µM)
MIC90 Range (OFLX-resistant S. aureus): 0.5 to 8 µg/mL
MIC90 Value (OFLX-resistant S. aureus): 8 µg/mL (≈ 20.3 µM)
MIC90 Geometric Mean [9]: 5.28 µg/mL (≈ 13.4 µM)
MIC90 Range [9]: 0.5 to 32 µg/mL
MIC90 Value [9]: 32 µg/mL (≈ 81.3 µM)
MIC90 Geometric Mean [10]: 0.10 µg/mL (≈ 0.254 µM)
MIC90 Range [10]: ≦0.06-0.13 μg/ml
MIC90 Value [10]: 0.13 µg/mL (≈ 0.33 µM)
MIC90 Geometric Mean [11]: 4.595 µg/mL (≈ 11.7 µM)
MIC90 Value [11]: >8 µg/mL
MIC90 Geometric Mean [12]: 0.120 µg/mL (≈ 0.305 µM)
MIC90 Range [12]: 0.06 to 2 µg/mL
MIC90 Value [12]: 0.12 µg/mL (≈ 0.305 µM)
MIC90 Geometric Mean [13]: 1.028 µg/mL (≈ 2.61 µM)
MIC90 Range [13]: 0.5 to 8 µg/mL
MIC90 Value [13]: 2 µg/mL (≈ 5.08 µM)
MIC90 Geometric Mean [14]: 0.027 µg/mL (≈ 0.0686 µM)
MIC90 Range [14]: 0.015 to 0.06 µg/mL
MIC90 Value [14]: 0.03 µg/mL (≈ 0.0762 µM)
MIC90 Geometric Mean [15]: 0.033 µg/mL (≈ 0.0838 µM)
MIC90 Range [15]: 0.015 to 1 µg/mL
MIC90 Value [15]: 0.06 µg/mL (≈ 0.152 µM)
MIC90 Geometric Mean [16]: 1.542 µg/mL (≈ 3.92 µM)
MIC90 Range [16]: 0.5 to 8 µg/mL
MIC90 Value [16]: 8 µg/mL (≈ 20.3 µM)
MIC90 Geometric Mean [17]: 0.108 µg/mL (≈ 0.274 µM)
MIC90 Range [17]: 0.06 to 0.12 µg/mL
MIC90 Value [17]: 0.12 µg/mL (≈ 0.305 µM)
MIC90 Geometric Mean [18]: 0.044 µg/mL (≈ 0.112 µM)
MIC90 Range [18]: 0.015 to 0.25 µg/mL
MIC90 Value [18]: 0.12 µg/mL (≈ 0.305 µM)
MIC90 Geometric Mean [19]: 0.652 µg/mL (≈ 1.66 µM)
MIC90 Range [19]: 0.03 to 2 µg/mL
MIC90 Value [19]: 2 µg/mL (≈ 5.08 µM)
MIC90 Geometric Mean [20]: 0.397 µg/mL (≈ 1.01 µM)
MIC90 Value [20]: 8 µg/mL (≈ 20.3 µM)
MIC90 Geometric Mean [21]: 1.587 µg/mL (≈ 4.03 µM)
MIC90 Range [21]: 1 to 4 µg/mL
MIC90 Range [22]: 0.015 to 2 µg/mL
MIC90 Value [22]: 0.25 µg/mL (≈ 0.635 µM)
MIC90 [23]: 16 µg/mL (≈ 40.6 µM)
MIC90 Range [24]: 0.03 to 0.12 µg/mL
MIC90 Value [24]: 0.12 µg/mL (≈ 0.305 µM)
MIC90 ([25]; Staphylococcus aureus (ATCC 33591)): 0.012 µg/mL (≈ 0.0305 µM)
MIC90 ([25]; Staphylococcus aureus (ATCC 33592)): 0.05 µg/mL (≈ 0.127 µM)
MIC90 ([25]; Staphylococcus aureus (ATCC 33593)): 0.012 µg/mL (≈ 0.0305 µM)
MIC90 ([25]; Staphylococcus aureus (No. 395)): 0.006 µg/mL (≈ 0.0152 µM)
MIC90 ([25]; Staphylococcus aureus (No. 415)): 0.05 µg/mL (≈ 0.127 µM)
MIC90 ([25]; Staphylococcus aureus (No. 419)): 0.1 µg/mL (≈ 0.254 µM)
MIC90 ([25]; Staphylococcus aureus (No. 420)): 0.1 µg/mL (≈ 0.254 µM)
MIC90 ([25]; Staphylococcus aureus (No. 421)): 0.2 µg/mL (≈ 0.508 µM)
